Source: publication PMC4520450, “Procyanidins Negatively Affect the Activity of the Phosphatases of Regenerating Liver” (PLoS ONE, 2015)
Where two headings read alike, the source gives them in different places.

Columns and labels:
PRL-3 = molecular target: T1, PRL-3 (Homo sapiens, UniProt O75365); test: DiFMUP phosphatase activity assay for PRLs; assay type: biochemical
T1 construct: His-TEV (cleaved yes); made in house
Description: Biochemical phosphatase activity measurements were carried out in the presence of different concentrations of various polyphenols, compounds 1–11 (Fig 1), using recombinant PRL-3 and 6,8-difluoro-4-methylumbelliferyl phosphate (DiFMUP) as a fluorogenic substrate (see the experimental procedures). We observed that the monomeric epicatechins EGC and EC inhibit PRL-3 only weakly, with a slightly better activity of EGC, which bears three hydroxyl groups at the B-ring. […] In general, as a basic structure activity-relationship the following trend was observed: a higher number of hydroxyl groups at the B-ring increased the activity slightly. […] The influence of the stereochemistry at C(2)–C(3) was studied by using GCG (the trans-epimer of EGCG).
(§1) Fig 2 Effect of polyphenolic compounds 8 (A), 9 (B), 10 (C) and 11 (D) on the phosphatase activity of PRL-1, PRL-2, PRL-3, PP1, and PP2A. Proteins were incubated for 30 min with 0–1000 μM of the corresponding procyandin 8–11. Phosphatase activity was measured in the presence of DiFMUP at 25°C using the concentration corresponding to the KM of each protein. The KM for PRLs was determined separately (PRL-3 = 21 μM, PRL-2 and PRL-1 = 24 μM). The KM for PP1 (91 μM) and for PP2A (100 μM) was taken from the literature. Protein concentrations are 50 nM for all PRLs and 2 mU for PP1 and 0.05 U for PP2A (see the Experimental Procedures). Phosphatase activity in the absence of inhibitors was set as 100%. Data represent means ± standard errors of the mean (n = 3–5).
(§2) DiFMUP assay for PRLs: In a final reaction volume of 100 μL the PRLs (50 nM final concentration) were incubated with decreasing concentrations of the inhibitory polyphenols for 30 minutes at 25°C. The buffer conditions were 108 mM TrisCl (pH 7.5), Triton 0.05% (v/v), DTT 27.0 mM, NaCl 811 mM. After the incubation time 20 μL DiFMUP (6,8-Difluoro-4-methylumbelliferyl phosphate) was added to reach a final concentration of 21 μM for PRL-3 and 24 μM for PRL-1 and PRL-2. On a Tecan safire2 (Tecan, Salzburg, Austria) plate reader dephosphorylation of the substrate to its fluorescent product was monitored by following the emission at 358 nm with excitation at 452 nm for 20 minutes. All measurements were done in triplicates, and the experiments were repeated at least three times. The slopes of the initial phases were obtained by linear regression of the data points. The normalized reaction rates were plotted versus the log of the inhibitor concentrations and the IC50 values were obtained by fitting the curves using the one site competition model of GraphPad Prism (GraphPad Software, Version 5). KM values were determined by measuring reaction kinetics of substrate dilution series. Initial velocities were plotted against DiFMUP concentration and the data was analyzed by Michaelis-Menten kinetics curve fitting of GraphPad Prism. A final DMSO content of 0.4% was maintained for the monomeric catechins. Due to the high water solubility of the procyanidins DMSO was not required and measurements were done in assay buffer only.

PRL-1 = molecular target: T2, PRL-1 (Homo sapiens, UniProt Q93096); test: DiFMUP phosphatase activity assay for PRLs; assay type: biochemical
T2 construct: His-TEV (cleaved yes); made in house
T2 sequence (Q93096 1-173): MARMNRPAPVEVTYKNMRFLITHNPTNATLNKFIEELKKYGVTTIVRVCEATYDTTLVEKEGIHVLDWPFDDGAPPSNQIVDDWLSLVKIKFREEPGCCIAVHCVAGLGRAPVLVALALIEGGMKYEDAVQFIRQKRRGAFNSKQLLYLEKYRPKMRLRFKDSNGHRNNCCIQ
Description: as §1, §2

[1] = tested on: PRL-3 overexpressing HEK293 cells; test: Wound healing assay; assay type: cell-based; details: 35 μM analog 3, PRL-3 overexpressing cells
Description: (§3) To study if procyanidin C2 is able to inhibit PRL-1 and PRL-3 in cells, HEK293 cells were treated in a wound-healing assay (see the experimental procedures). […] As a control the empty vector cell line was again utilized. […] The migration speed was for all cell lines similar when treated with 50 μM of 9. To further corroborate these findings we performed additionally a transwell assay as an alternative way to study cell migration.
(§4) Fig 6 Wound healing abilities of PRL-1 or PRL-3 overexpressing or empty vector control HEK293 cell lines were analyzed in the presence of compound 9 or medium only. Cells were seeded at a concentration of 800,000 cells per insert and procyanidin C2 (9) was added at a concentration of 25 and 50 μM. A) Pictures of the wound gaps were taken at 0 h and 7 h for both conditions (with and without treatment). B) Quantification of the wound healing experiment. Speed of migration is shown for combined data from different replicates, as mean ± SD (n = 38–88). Two-sided t-tests with Welsh correction were performed for p < 0.05. ns = not significant;***: < 0.001; **: < 0.01; *: < 0.05. C) Effect of polyphenolic compounds in a transwell assay on the cell migration of HEK293 empty vector and PRL-3 overexpressing cell lines. Cells were seeded at a concentration of 100,000 cells per insert and procyanidin C2 (9) was added at a final concentration of 25 and 50 μM. Migration was allowed for 16 h before harvesting and staining with calcein AM for fluorescent readout. Mean ± SD (n = 60–72) is shown for combined data from different replicates. Two-sided t-tests with Welsh correction were performed for p < 0.05. ns = not significant. D) Quantification of wound healing experiment including blocking PRL-1 and PRL-3 with analog 3. Speed of migration is shown for combined data from different replicates, as mean ± SD (n = 63–82). Two-sided t-tests with Welsh correction were performed for p < 0.05.
(§5) Wound healing experiments were carried out with μ-dish 35mm culture inserts. 8 × 10^5 cells/mL of the respective HEK293 stable cell lines were seeded into each of the two insert wells and allowed to settle for 40 h in the presence of tetracycline. Then the inserts were gently removed and growth medium supplemented with 7.5% FBS and 0.1% tetracycline was added as well as procyanidin C2 (9) or procyanidin B3 (8) at a final concentration of 25, 50 or 75 μM. For the experiment including blocking of PRLs with analog 3, the latter one was added at a final concentration of 35 μM, followed by addition of procyanidin C2 (9) at either 25 or 50 μM final concentration. Negative controls contained growth medium with FBS only. Pictures of the wound gap were taken at 0 h and 7 h time points. A Zeiss Cellobserver HS microscope was used with 10 × magnitude. For data analysis, in each experiment, the distances between both cell fronts at time point 0 h and 7 h were measured by taking 20 different measuring points. Then all the measurements from different replicates (4) for each experiment were combined and analyzed by t-test using Welsh correction in GraphPad Prism. Data are shown with 99% confidence intervals.

[2] = tested on: PRL-1 overexpressing HEK293 cells; test: Wound healing assay; assay type: cell-based; details: 35 μM analog 3, PRL-1 overexpressing cells
Description: as §3, §4, §5

[3] = 50 nM PRL-3, 30 min preincubation, 25°C, 21 μM DiFMUP, mean ± SEM (n = 3–5), read-out: IC50 (Ki) PRL-3

T1 sequence (O75365 whole entry): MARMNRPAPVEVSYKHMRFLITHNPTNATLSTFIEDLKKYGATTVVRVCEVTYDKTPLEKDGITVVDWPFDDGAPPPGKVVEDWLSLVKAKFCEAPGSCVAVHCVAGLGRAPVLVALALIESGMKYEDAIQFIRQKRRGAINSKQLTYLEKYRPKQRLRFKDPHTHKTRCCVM

Q: Which IC50 (PRL-3; [3]) does the source give for `Oc1cc(O)c2c(c1)O[C@H](c1ccc(O)c(O)c1)[C@@H](O)C2` [(+)-Catechin (6), (+)-Catechin] here?
A: Its IC50 is 456 ± 65.6 µM.

Q: And the “IC50 toward PRL-1 relative to IC50 values of the oligomers” value (PRL-1)?
A: The value was 50 fold.

Q: What about the “IC50 toward PRL-1 relative to PRL-3” value (PRL-1) of the same molecule?
A: The value was “about three times lower”.

Q: And the IC50 (PRL-1; 50 nM PRL-1, 30 min preincubation, 25°C, 24 μM DiFMUP, mean ± SEM (n = 3–5), read-out: IC50 (Ki) PRL-1)?
A: The IC50 was 158 ± 1.2 µM.

Q: `Oc1cc(O)c2c(c1)O[C@H](c1ccc(O)c(O)c1)[C@H](O)C2` [EC (1), (–)-epicatechin] was tested. Which IC50 (PRL-3; [3]) did it give?
A: Its IC50 is 514 ± 68.2 µM.

Q: Which results are given for `O=C(O[C@@H]1Cc2c(O)cc(O)cc2O[C@@H]1c1ccc(O)c(O)c1)c1cc(O)c(O)c(O)c1` [ECG (2), (–)-epicatechin-3-O-gallate]?
A: increase in PRL-3 inhibition of 3-gallate ester compared to non-gallate (2 vs 1, 4 vs 3) (PRL-3): about two-fold increase; IC50 (PRL-3; [3]): 181 ± 13.6 µM

Q: Which IC50 (PRL-3; [3]) does the source give for `Oc1cc(O)c2c(c1)O[C@H](c1cc(O)c(O)c(O)c1)[C@H](O)C2` [EGC (3), (–)-epigallocatechin] here?
A: The IC50 was 285 ± 3.7 µM.

Q: `O=C(O[C@H]1Cc2c(O)cc(O)cc2O[C@@H]1c1cc(O)c(O)c(O)c1)c1cc(O)c(O)c(O)c1` [GCG (5)] was tested. Which IC50 (PRL-3; [3]) did it give?
A: Its IC50 is 113 ± 10.7 µM.

Q: What does the source list for `O=C(O)c1cc(O)c(O)c(O)c1` [Gallic acid (7), Gallic acid]?
A: IC50 (PRL-3): > 1000 µM; inhibition of PRL-3 (PRL-3; up to 1000 μM): did not show any inhibition

Q: `Oc1cc(O)c2c(c1)O[C@H](c1cc(O)c(O)c(O)c1)[C@H](O)C2` [analog 3, reference compound] was tested. Which “migration speed, wound healing” value [1] did it give?
A: Its value is “fell back to the baseline level of the empty vector cell line”.

Q: And the “migration speed, wound healing” value [2]?
A: Its value is “a bit lower than the baseline”.
